Test results published in patent US20250034182A1, “PHOSPHOLIPID COMPOUNDS AND METHODS OF MAKING AND USING THE SAME” (priority 2021, published 2025).
Where two headings read alike, the source gives them in different places.

Key:
Assay type in all cases: cell-based
HCV Replicon 2A = HCV Replicon 2A EC50 (Example Q); settings: Hepatitis C virus, 72 h, read-out: HCV Replicon 2A EC50 (nM) (per Ex. Q)
Experimental: (§1) Compounds were serially diluted in ten steps of 1:3 dilutions in 384-well plates. All serial dilutions were performed in four replicates per compound within the same 384-well plate. An HCV protease inhibitor ITMN-191 at […] was added as a control of 100% inhibition of HCV replication while puromycin at 10 mM was included as a control of 100% cytotoxicity. To each well of a black polystyrene 384-well plate (Greiner Bio-one, Monroe, NC), 90 μL of cell culture medium (without Geneticin) containing 2000 suspended HCV replicon cells was added with a Biotek μFlow workstation. For compound transfer into cell culture plates, 0.4 μL of compound solution from the compound serial dilution plate was transferred to the cell culture plate on a Biomek FX workstation. The DMSO concentration in the final assay wells was 0.44%. The plates were incubated for 3 days at 37° C. with 5% CO2 and 85% humidity. The HCV replicon assay was a multiplex assay, able to assess both cytotoxicity and antireplicon activity from the same well. The CC50 assay was performed first. The media in the 384-well cell culture plate was aspirated, and the wells were washed four times with 100 μL of PBS each, using a Biotek ELX405 plate washer. A volume of 50 μL of a solution containing 400 nM calcein AM (Anaspec, Fremont, CA) in 1×PBS was added to each well of the plate with a Biotek μFlow workstation. The plate was incubated for 30 min at room temperature before the fluorescence signal (excitation 490 nm, emission 520 nm) was measured with a Perkin-Elmer Envision plate reader. The EC50 assay was performed in the same wells as the CC50 assay. The calcein-PBS solution in the 384-well cell culture plate was aspirated with a Biotek ELX405 plate washer. A volume of 20 μL of Dual-Glo luciferase buffer (Promega, Madison, WI) was added to each well of the plate with a Biotek μFlow Workstation. The plate was incubated for 10 min at room temperature. A volume of 20 μL of a solution containing a 1:100 mixture of Dual-Glo Stop & Glo substrate (Promega, Madison, WI) and Dual-Glo Stop & Glo buffer (Promega, Madison, WI) was added to each well of the plate with a Biotek μFlow Workstation. The plate was then incubated at room temperature for 10 min before the luminescence signal was measured with a Perkin-Elmer Envision Plate Reader.

in vitro = settings: human
[1] = tested on: dengue virus type 2 in Huh7 hepatoblastoma cells; assay: Dengue Virus-2 Huh-7 EC50 (Example W); settings: MOI of 0.07, CPE, neutral red dye, read-out: Dengue Virus-2 Huh-7 EC50 (nM) (per Ex. W)
Procedure, shortened: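 Huh7 monolayers were infected with dengue virus type 2 (about 2000 CCID50/well, MOI 0.07) in the presence of eight 3-fold compound dilutions, top 50 μg/mL, and incubated until >80% CPE. Viability by neutral red uptake at 540 nm, normalized to virus controls; EC50 and CC50 by linear regression.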

[2] = HCV Replicon 2A CC50, calcein AM (Example Q); settings: calcein AM fluorescence, read-out: HCV Replicon 2A CC50 (nM) (per Ex. Q)
Experimental: as §1

[3] = tested on: Recombinant Respiratory Syncytial virus strain A2 containing the firefly luciferase reporter (RSV-Fluc) in NHBE cells; assay: RSV NHBE FLuc EC50 (Example I); settings: human respiratory syncytial virus, 72 h, read-out: RSV NHBE FLuc EC50 (nM) (per Ex. I)
Procedure, shortened: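 NHBE primary cells (passage 2-4) treated with threefold compound dilutions and infected with RSV A2 firefly-luciferase reporter virus at MOI 0.1; 3 days at 37° C, 5% CO2. ONE-Glo luminescence normalized to uninfected and infected DMSO controls; EC50 from non-linear regression, duplicates with two technical repeats.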

[4] = HCV replicon cells, 3 days, Dual-Glo luciferase

SMILES	EC50 (HCV Replicon 2A; [4])	CC50 (in vitro)	EC50 [1]	CC50 at 3 days ([2]; HCV replicon cells (2A))	EC50 [3]	EC50 (HCV Replicon 2A)	CC50 at 3 days ([2]; HCV replicon cells)
CCCCCCCCCCCCCCCCCCOC[C@H](COP(=O)(O)OC[C@@]1(C#N)O[C@@H](c2ccc3c(N)ncnn23)[C@H](O)[C@@H]1O)OCc1ccc(C#N)c(Cl)c1 [Compound 7, ((2R,3S,4R,5S)-5-(4-aminopyrrolo[2,1-f][1,2,4]triazin-7-yl)-2-cyano-3,4-dihydroxytetrahydrofuran-2-yl)methyl ((R)-2-((3-chloro-4-cyanobenzyl)oxy)-3-(octadecyloxy)propyl) hydrogen phosphate]	30600 nM	19 µM	8700 nM	> 44400 nM	113 nM	–	–
CCCCCCCCCCCCCCCCC[C@H](COP(=O)(O)OC[C@@]1(C#N)O[C@@H](c2ccc3c(N)ncnn23)[C@H](O)[C@@H]1O)OCc1cc(F)cc(C#N)c1 [Compound 36, ((2R,3S,4R,5S)-5-(4-aminopyrrolo[2,1-f][1,2,4]triazin-7-yl)-2-cyano-3,4-dihydroxytetrahydrofuran-2-yl)methyl ((R)-2-((3-cyano-5-fluorobenzyl)oxy)nonadecyl) hydrogen phosphate]	–	17 µM	10000 nM	–	121 nM	21800 nM	> 44400 nM
CCCCCCCCCCCCCCCCCC[C@@H](COP(=O)(O)OC[C@@]1(C#N)O[C@@H](c2ccc3c(N)ncnn23)[C@H](O)[C@@H]1O)OCc1cc(F)cc(C#N)c1 [Compound 37, ((2R,3S,4R)-5-(4-aminopyrrolo[2,1-f][1,2,4]triazin-7-yl)-2-cyano-3,4-dihydroxytetrahydrofuran-2-yl)methyl ((S)-2-((3-cyano-5-fluorobenzyl)oxy)icosyl) hydrogen phosphate]	26000 nM	16 µM	11000 nM	> 44400 nM	276 nM	–	–
CCCCCCCCCCCCCCCCCCCC[C@H](COP(=O)(O)OC[C@@]1(C#N)O[C@@H](c2ccc3c(N)ncnn23)[C@H](O)[C@@H]1O)Oc1cccc(C#N)c1 [Compound 51, ((2R,3S,4R,5S)-5-(4-aminopyrrolo[2,1-f][1,2,4]triazin-7-yl)-2-cyano-3,4-dihydroxytetrahydrofuran-2-yl)methyl ((R)-2-(3-cyanophenoxy)docosyl) hydrogen phosphate]	19200 nM	21 µM	11000 nM	> 44400 nM	66 nM	–	–
CCCCCCCCCCCCCCCCCOC[C@H](COP(=O)(O)OC[C@@]1(C#N)O[C@@H](c2ccc3c(N)ncnn23)[C@H](O)[C@@H]1O)OCc1cc(F)cc(C#N)c1 [Compound 53, ((2R,3S,4R,5S)-5-(4-aminopyrrolo[2,1-f][1,2,4]triazin-7-yl)-2-cyano-3,4-dihydroxytetrahydrofuran-2-yl)methyl ((R)-2-((3-cyano-5-fluorobenzyl)oxy)-3-(heptadecyloxy)propyl) hydrogen phosphate]	15500 nM	16 µM	9900 nM	36200 nM	69 nM	–	–
CCCCCCCCCCCCCCCCCCOC[C@H](COP(=O)(O)OC[C@@]1(C#N)O[C@@H](c2ccc3c(N)ncnn23)[C@H](O)[C@@H]1O)OCc1ccc(C#N)cc1OC [Compound 73, ((2R,3S,4R)-5-(4-aminopyrrolo[2,1-f][1,2,4]triazin-7-yl)-2-cyano-3,4-dihydroxytetrahydrofuran-2-yl)methyl ((R)-2-((4-cyano-2-methoxybenzyl)oxy)-3-(octadecyloxy)propyl) hydrogen phosphate]	20400 nM	19 µM	9500 nM	> 44400 nM	25 nM	–	–
